The source of these data is patent US20230310435A1, “HOST DEFENSE PROTEIN (HDP) MIMETICS FOR PROPHYLAXIS AND/OR TREATMENT OF INFLAMMATORY DISEASES OF THE GASTROINTESTINAL TRACT” (priority 2015, published 2023).

Where “and” joins values, the source holds several entries; their conditions need not be identical. Identical values can stand only once. Counter-ions that a name gives are not always drawn. Like-named read-outs stand apart in the source and are kept apart here.

Data set [1] concerns LPS-induced MMP-9 release, NR8383 cells. Description: LPS-induced MMP-9 release in NR8383 rat macrophages (ELISA). The class given is cell-based. Here is the method: Method for FIG. 9. […] After 8 hours, supernatants were collected for MMP9 measurement by ELISA using immunoassay kit (R&D Systems, Minneapolis, MN) according to manufacturer's instructions.
The MMP-9 inhibition assay was performed according to the Method described for FIG. 9.
(§1) PDE4 and PDE3 inhibition results in subsequent down-regulation of pro-inflammatory cytokines/chemokines and its regulators, and experiments were conducted to confirm such down-regulation by brilacidin in ex vivo cell-based assays. In these assays, cells were exposed to brilacidin 45 minutes before an 8-hour lipopolysaccharide (LPS) stimulation in the presence of brilacidin; cytokine/enzyme concentrations were determined by ELISA using a standard immunoassay kit.
(In general: In an ELISA, binding on a coated surface is turned into a signal by an enzyme label.)

Data set [2] deals with LPS-induced MCP-1 release, NR8383 cells. Description: LPS-induced MCP-1 release in NR8383 rat macrophages (ELISA). The class given is cell-based. Here is the method:
Method for FIG. 7. […] After 8 hours, supernatants were collected for MCP-1 measurement by ELISA. MCP-1 was measured using an immunoassay kit according to manufacturer's instructions (Thermo Scientific, Rockford. IL).
Method for FIG. 8. MCP-1 assays were performed using PMX-60056. Rat macrophages (NR8383) were pretreated with […] with concentrations shown for 45 minutes, followed by 1 μg/ml LPS treatment from E. coli (Sigma, St. Louis, MO) for 8 hours. After 8 hours, supernatants were collected for MCP-1 measurement by ELISA. MCP-1 was measured using an immunoassay kit according to manufacturer's instructions (Thermo Scientific, Rockford, IL).
The MCP-1 inhibition assay was performed according to the Method described for FIG. 7.
The MCP-1 inhibition assay was performed according to the Method described for FIG. 8.
as §1

The subject of data set [3] is acetic acid-induced colitis. Type of data set: in vivo. The note with it: for reduction of UC score: not significantly. How it is done:
Method for FIG. 14. […] Balb/c mice were fasted for 24 hours. Colitis was induced by injecting 200 μL of 4% acetic acid into the rectum. […] Another group of animals were treated with 5-ASA (5-aminosalicylic acid or mesalamine), and another received no treatment. Seven days after the first dose, five cm of intestine were cleaned in cold saline then weighed.
Method for FIG. 15. […] Balb/c mice were fasted for 24 hours. Colitis was induced by injecting 200 μL of 4% acetic acid into the rectum. […] Another group of animals were treated with 5-ASA (5-aminosalicylic acid or mesalamine), and another received no treatment. Seven days after the first dose the colon was examined visually for mucosal injury and scored according to the Table below.
Briefly, colitis was induced by injecting 4% acetic acid into the rectum.

A further data set relates to DSS-induced colitis. The data set can be described thus: Dextran sulfate sodium (DSS)-induced acute colitis model. Type of data set: in vivo, male C57BL/6 mice. Here is the method:
The efficacy of brilacidin administered was investigated in a murine model of chemically-induced acute colitis using dextran sulfate sodium (DSS). This was a different in vivo model of IBD to the testing performed in Examples 16 and 17 (where mucosal injury was induced by using acetic acid). DSS-induced colitis in mice is characterized by weight loss, bloody diarrhea, intestinal ulcerations and infiltrations with granulocytes. In mice, DSS was administered from Day 0 to Day 11, as a 5% (w/v) DSS solution in the drinking water of male C57BL/6 mice (Kim J J, et al., J. Vis. Exp., 2012, 60, 3678), to induce severe murine colitis. On Days 7-11, test compound brilacidin (400 mg/kg) or positive control 5-ASA (50 mg/kg) or water (negative control) were administered as a solution, per rectum. On Days 6, 10 and 11, rectal bleeding was assessed using a Hemoccult® kit and stool consistency was visually assessed; severity of symptoms were scored on a scale of 0 (normal) to 4 (severe). Level of pro-inflammatory cytokines interleukin (IL)-6 and IL-1β in distal colon tissue were determined from excised colons using conventional ELISA methods.

Another data set deals with human PDE3A (Homo sapiens, UniProt Q14432). The data set can be described thus: PDE-Glo phosphodiesterase assay, PDE3. The class given is biochemical. The settings on record: 2.75 ng PDE3A, 1 μM cAMP substrate, 15 min pre-incubation; read-out: IC50, inhibition of PDE3. How it is done:
Method for FIG. 3. […] The compounds and PDE3A were mixed and pre-incubated at room temperature for 15 minutes. Substrate was added and the reaction was incubated for 7 minutes at room temperature. Data are presented as luminescence units (RLU).
Method for FIG. 4. Phosphodiesterase inhibition assays of PDE3 were performed using PMX-60056. The PDE-Glo phosphodiesterase assay (Promega, Madison, WI, USA Catalog No. V1361) was performed according to manufacturer's instruction using 2.75 ng of PDE3A, 1 μM cAMP substrate and PMX60056. The compounds and PDE3A were mixed and pre-incubated at room temperature for 15 minutes. Substrate was added and the reaction was incubated for 7 minutes at room temperature. Data are presented as luminescence units (RLU).
The compounds and PDE3A were mixed and pre-incubated at room temperature for 15 minutes. Substrate was added and the reaction was incubated. […]
as §1

Data set [4] relates to Ulcerative Proctosigmoiditis/Ulcerative Proctitis (UP/UPS). The data set can be described thus: Phase 2 clinical trial CTIX-BRI-206 in Ulcerative Proctitis/Ulcerative Proctosigmoiditis. Type of data set: in vivo, human. Here is the method: In a Phase 2 study (CTIX-BRI-206), clinical remission (with Endoscopic response) was achieved after 6 weeks of treatment in >50% subjects in each treatment cohort (50 mg, 100 mg, and 200 mg brilacidin, as daily retention enema) (FIG. 21, Panel A). Inflammatory biomarkers IL-1β and IL-6 were reduced in colonic tissue biopsies collected at Week 6 (Day 42) compared to those biopsies collected at baseline (FIG. 21, Panel B).

The mark [5] stands for this setting: by Day 11, brilacidin 400 mg/kg per rectum Days 7-11, p<0.001.
Where [6] appears, read: end of study, brilacidin 400 mg/kg or 5-ASA 50 mg/kg per rectum Days 7-11.

Chain of human PDE3A (Q14432 whole entry): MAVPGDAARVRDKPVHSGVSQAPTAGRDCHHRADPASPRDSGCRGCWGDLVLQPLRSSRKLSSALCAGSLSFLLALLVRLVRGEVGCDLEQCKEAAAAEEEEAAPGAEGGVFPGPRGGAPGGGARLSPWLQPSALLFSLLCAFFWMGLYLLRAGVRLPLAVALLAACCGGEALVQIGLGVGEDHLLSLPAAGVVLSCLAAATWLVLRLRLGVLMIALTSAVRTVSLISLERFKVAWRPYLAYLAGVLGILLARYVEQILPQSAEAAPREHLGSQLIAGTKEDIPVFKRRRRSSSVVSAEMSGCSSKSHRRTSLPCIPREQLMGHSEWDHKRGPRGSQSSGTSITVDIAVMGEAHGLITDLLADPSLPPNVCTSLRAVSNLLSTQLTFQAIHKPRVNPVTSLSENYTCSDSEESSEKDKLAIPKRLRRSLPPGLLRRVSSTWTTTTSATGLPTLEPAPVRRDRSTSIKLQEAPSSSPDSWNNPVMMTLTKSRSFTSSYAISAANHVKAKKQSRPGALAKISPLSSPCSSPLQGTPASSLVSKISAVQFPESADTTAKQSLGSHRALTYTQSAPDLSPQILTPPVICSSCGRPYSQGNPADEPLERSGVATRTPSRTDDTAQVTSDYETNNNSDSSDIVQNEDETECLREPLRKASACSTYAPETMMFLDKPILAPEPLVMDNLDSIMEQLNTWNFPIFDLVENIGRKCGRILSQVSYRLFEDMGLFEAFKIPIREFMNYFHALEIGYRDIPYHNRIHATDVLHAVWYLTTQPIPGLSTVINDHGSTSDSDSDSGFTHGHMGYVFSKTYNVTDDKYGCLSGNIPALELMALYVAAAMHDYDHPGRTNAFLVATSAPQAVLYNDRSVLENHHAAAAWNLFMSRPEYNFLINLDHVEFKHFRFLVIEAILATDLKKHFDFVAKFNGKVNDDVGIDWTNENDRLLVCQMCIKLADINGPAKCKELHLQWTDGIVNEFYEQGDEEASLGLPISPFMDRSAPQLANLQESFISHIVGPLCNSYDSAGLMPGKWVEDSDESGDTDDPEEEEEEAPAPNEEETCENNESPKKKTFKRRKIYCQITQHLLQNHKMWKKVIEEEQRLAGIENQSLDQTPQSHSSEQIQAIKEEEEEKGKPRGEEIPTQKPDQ

Consider `N=C(N)NCCCCC(=O)Nc1cc(C(F)(F)F)cc(NC(=O)c2cc(C(=O)Nc3cc(C(F)(F)F)cc(NC(=O)CCCCNC(=N)N)c3O[C@@H]3CCNC3)ncn2)c1O[C@@H]1CCNC1` [PMX-30063, N^4,N^6-bis(2-((R)-pyrrolidin-3-yloxy)-3-((4-carbamoylbutyl)guanidine)-5-(trifluoromethyl)phenyl)pyrimidine-4,6-dicarboxamide tetrahydrochloride salt], for which the concentration for half-maximal inhibition (IC50) in data set [1] (Rattus norvegicus, Macrophage, NR8383 cells, ELISA, 45 min pretreatment, 8-hour LPS, read-out: IC50, inhibition of LPS-induced MMP-9 release) was determined as 2300 nM. The “decrease in MMP-9 levels” value in data set [1] (at 12.5 μM, NR8383, LPS 1 μg/ml 8 h) was 50%. For the same molecule, the “effect on MCP-1 induction after LPS stimulation (in words)” value in data set [2] (NR8383, 45 min pretreatment, LPS 1 μg/ml 8 h) is “strong inhibition”. For the same molecule, the half-inhibitory concentration (IC50) in data set [2] (Rattus norvegicus, Macrophage, NR8383 cells, ELISA, 45 min pretreatment, 8-hour LPS, read-out: IC50, inhibition of LPS-induced MCP-1 release) amounted to 750 nM. Moreover, the “decrease in MCP-1 levels” value in data set [2] (at 0.5 μM, NR8383, LPS 1 μg/ml 8 h) is reported as at least 25%. Besides, the “reduction of UC score” value in data set [3] (40 mg/kg (so in the source) intrarectally) stood at 67%. Besides, the “reduction of median UC score” value in data set [3] (100 mg/kg intrarectally) was 33%. In addition, the “reduction of UC score” value in data set [3] (200 mg/kg intrarectally) came to 67%. Besides, in data set [3] (400 mg/kg intrarectally), the “reduction of intestine weights compared to untreated controls” value came to 17% and the “ulcerative colitis score compared to untreated controls (in words)” value is recorded as “significantly reduced”. The “tolerability (in words)” value in data set [3] (mouse, in vivo) was “well-tolerated”. In addition, the “ulcerative colitis score (in words)” value in data set [3] (rectal administration, 100, 200, 400 mg/kg) is “dose dependent decrease”. Also, in data set [3] (rectal administration, 100-400 mg/kg once daily), the “intestine weights compared to untreated controls (in words)” value was “reduced, but not significantly”. Besides, in the data set on DSS-induced colitis (setting [5]), the “rectal bleeding score compared to DSS-treated control (in words)” value is “significant decrease” and the “stool consistency compared to DSS-treated control (in words)” value was “significantly more firm”. Also, in the data set on DSS-induced colitis (setting [6]), the “mean reduction in IL-1β in distal colon tissue compared to DSS-treated control group” value came out at 27% and the “mean reduction in IL-6 in distal colon tissue compared to DSS-treated control group” value is 40%. Besides, the 50% inhibitory concentration (IC50) at human PDE3A was ~1800 nM and 1800 nM. In addition, in data set [4] (Week 6 (Day 42)), the “IL-1β in colonic tissue biopsies vs baseline (in words)” value was “reduced” and the “IL-6 in colonic tissue biopsies vs baseline (in words)” value is reported as “reduced”. The “subjects achieving clinical remission (with Endoscopic response)” value in data set [4] (after 6 weeks, each cohort (50 mg, 100 mg, 200 mg, daily retention enema)) is given as above 50%.

By IC50 is commonly meant the concentration that gives 50% inhibition.
